Entries after “also recorded” stand apart in the source; their conditions may differ.
Legend:
[1] = system: PBMC from HIV-infected individuals; assay: Proliferation of PBMC from HIV-infected individuals, 3H thymidine incorporation; assay type: cell-based, human; conditions: for stimulation of proliferation: higher doses (10^−4M), PBMC of HIV-infected patients; for stimulation of proliferation (incorporation of 3H thymidine, cpm): very low / low doses, PBMC from HIV-infected patients, in vitro
Text: If desired, additional in vitro assays can be carried out using candidate compounds of the invention, prior to their use in vivo. One such assay employs the candidate compound at a very low concentration, in a test designed to determine whether at low concentrations the compound can stimulate the proliferation of PBMC from HIV infected patients in vitro. As is shown in the data of FIG. 4, stimulation can be measured by, e.g., incorporation of a labelled nucleotide. Peripheral blood mononuclear cells (PBMC) were obtained by standard methods from HIV-infected individuals, and from uninfected individuals. Varying dosages of KBP or VBP were contacted with the PBMC in vitro, and stimulation of proliferation was measured by incorporation of ^3H thymidine (cpm).

CD4/CD8+ T cells = assay: Cell death of purified resting T-cells, 7AAD flow cytometry; assay type: cell-based, human; conditions: overnight incubation, 10^−4M or 10^−6M
Method: CD19+B cells and CD4/CD8+ T cells were isolated (>90% and >97% purity, respectively). The cells were then incubated overnight in the presence or absence of VBP (10^−4M or 10^−6M). The amount of death induced by VBP treatment was determined by 7AAD flow cytometry analysis. The data represents the mean percent of death from duplicate samples.
The amount of cell death was determined by 7AAD flow cytometry analysis. Data represent % of cell death from duplicate samples.

[2] = system: CD26+ and CD26− PBMC populations; assay: Cell death of sorted CD26+ and CD26− PBMC populations, 7AAD flow cytometry; assay type: cell-based, human; conditions: overnight, various (moderate) concentrations
Method: PBMC were stained with the anti-CD26 monoclonal antibody, 4 EL, and then sorted into CD26^+ and CD26^− populations using a facstar plus dual lasar flow cytometry. The cells expressing the highest level )top 5%) of CD26 and the cells expressing the lowest level (bottom 10%) of CD26 were isolated as the CD26^+ and CD26^− populations respectively. […] The CD26^+ and CD26^− populations were cultured overnight in the presence or absence of various concentrations of VBP. The amount of death induced by VBP treatment was determined by 7AAD flow cytometry analysis. Data represent mean percent of death from duplicate samples +/−SD.
The amount of cell death was determined by 7AAD flow cytometry analysis. Data represent mean % of death from duplicate samples.

[3] = system: cytoplasmic T-cell enzyme (post-prolyl dipeptidase) in Jurkat T-cell cytoplasmic extract; assay: Enzymatic activity of Jurkat T-cell cytoplasmic extract, fluorescent cleavage of Ala-ProAFC; assay type: biochemical, human; conditions: varying concentrations
Method: A suitable enzyme-containing cell extract can be prepared as follows. First, Jurkat cells (10^6-10^11 cells) are grown and a cell pellet is obtained by centrifugation. The cell pellet is stored in frozen condition.
For use in the assay, the frozen pellet is thawed by the addition of ice cold lysis buffer, in the amount of approximately 1 ml per 10^8 cells. The liquified material is homogenized with ten strokes of a Dounce homogenizer, and then clarified by centrifugation at 1500 g. The supernatant is removed (and saved), and the 1500 g. pellet is resuspended in lysis buffer and homogenized with ten strokes of a Dounce homogenizer. Clarification is again carried out by centrifugation at 1500 g, 4° C.
The 1500 g supernatants are then combined, and EDTA is added to 5mM. The resultant liquid is centrifuged at 75,000 g at 4° C. for twenty minutes, and the supernatant is then removed and centrifuged at 175,000 g. at 4° C., for 60 minutes. […]
In the assay we carried out, we employed a fluorescence spectrometer for excitation at 400 nm and emission at 505 nm. […]
In the test samples, multiple samples are run containing varying concentrations, down to 10^−8 M, of the test compound. […] Enzymatic activity is measured as the accumulation of fluoresence intensity (i.e., substrate cleavage product) over time (1 min.).

SMILES | stimulation of proliferation [1] | stimulation of proliferation (incorporation of 3H thymidine, cpm) [1] | cell death / apoptosis (7AAD) (CD4/CD8+ T cells) | cell death / apoptosis (7AAD) (CD4/CD8+ T cells; listed as VBP) | cell death / apoptosis (7AAD) [2] | cell death / apoptosis (7AAD) ([2]; listed as VBP) | inhibition of enzymatic activity (AFC release from Ala-ProAFC) [3] | inhibition of enzymatic activity (AFC release from Ala-ProAFC) ([3]; listed as val-boroPro)
NCCCC[C@H](N)C(=O)N1CCC[C@H]1B(O)O [Lys-boroPro] | do not have this effect | stimulated proliferation; also recorded: cause proliferation |  |  |  |  |  | 
CC(C)[C@H](N)C(=O)N1CCC[C@H]1B(O)O [Val-boroPro] | do not have this effect | stimulated proliferation; also recorded: cause proliferation | highly sensitive | dose-dependent apoptosis | equally susceptible | dose-dependent apoptosis in both CD26^+ and CD26^− populations; also recorded: equally susceptible | inhibited | inhibited the cytoplasmic enzyme
